From patent US11857596B2, “Animal feed additive and animal feed” (priority 2018, dated 2024)
≈ marks a conversion by molar mass, not a printed value. Where two headings read alike, the source gives them in different places. Residues, ends and D or L forms follow the SMILES beside them.

Assays:
[1] = system: Caco-2 cells (human intestinal epithelial cells); test: Membrane strengthening experiment (TER recovery of barrier function after TNF-α); type: cell-based; conditions: for function of strengthening the barrier function (membrane-strengthening ability): result in words, FIG. 1A-1H
[2] = Chicken growth test (body weight gain and feed conversion ratio); type: in vivo, broiler chickens; conditions: 0-3 weeks
[3] = system: Lactobacillus acidophilus AJ13778; test: Minimum inhibitory concentration, spot-on-lawn method; type: cell-based
[4] = system: Lactobacillus salivarius AJ110152; test: as above; type: cell-based; conditions: for MIC: Ligilactobacillus salivarius
[5] = system: Clostridium perfringens AJ3350; test: microbe, parasite or virus in culture; type: cell-based; conditions: for Minimum inhibitory concentration: indicator strain Clostridium perfringens AJ3350, GAM, 37° C.; for MIC: Clostridium perfringens, AJ3350, read-out: Minimum inhibitory concentration
[6] = system: Enterococcus faecalis AJ110149; test: Minimum inhibitory concentration, spot-on-lawn method; type: cell-based
Escherichia coli MG1665 = test: as above; type: cell-based
[7] = system: Bacteroides fragilis JCM11019; test: as above; type: cell-based
[8] = system: Bifidobacterium thermophilum AJ110569; test: as above; type: cell-based
[9] = system: Salmonella enterica AJ2785; test: microbe, parasite or virus in culture; type: cell-based; conditions: for MIC: Salmonella enterica, AJ2785, read-out: Minimum inhibitory concentration
[10] = Homo sapiens, Caco-2, 24 h, read-out: Recovery ratio (%)
[11] = material conc. 10 uM, TER barrier function recovery, 24 h
[12] = material conc. 10 uM, comparison value with Ctr (TNFα alone), 24 h, 1.1 or more = membrane-strengthening ability
[13] = Table 3, addition 10 ppm in feed, negative control = 100
[14] = Table 4, addition 10 ppm in feed
[15] = Table 6, addition 10 ppm, NC = 100%, listed as PC1 (W/Avilamycin)
[16] = Table 6, addition 10 ppm, NC = 100%, listed as PC2 (W/Avilamycin)
[17] = indicator strain Lactobacillus acidophilus AJ13778, MRS, 37° C.
[18] = indicator strain Lactobacillus salivarius AJ110152, MRS, 37° C.
[19] = indicator strain Enterococcus faecalis AJ110149, MRS, 30° C., ND = no effect detected
[20] = indicator strain Escherichia coli MG1665, LB, 37° C.
[21] = indicator strain Bacteroides fragilis JCM11019, GAM, 37° C.
[22] = indicator strain Bifidobacterium thermophilum AJ110569, GAM, 37° C.
[23] = indicator strain Lactobacillus acidophilus AJ13778, MRS, 37° C., read-out: Minimum inhibitory concentration
[24] = indicator strain Lactobacillus salivarius AJ110152, MRS, 37° C., read-out: Minimum inhibitory concentration
[25] = indicator strain Enterococcus faecalis AJ110149, MRS, 30° C., ND = no effect detected, read-out: Minimum inhibitory concentration
[26] = indicator strain Escherichia coli MG1665, LB, 37° C., read-out: Minimum inhibitory concentration
[27] = indicator strain Bacteroides fragilis JCM11019, GAM, 37° C., read-out: Minimum inhibitory concentration
[28] = indicator strain Bifidobacterium thermophilum AJ110569, GAM, 37° C., read-out: Minimum inhibitory concentration
[29] = Escherichia coli, MG1665, read-out: Minimum inhibitory concentration
[30] = material conc. 1 uM, comparison value with Ctr (TNFα alone), 24 h

## N[C@@H](Cc1c[nH]c2ccccc12)C(=O)O [Tryptophan, tryptophan]
[1]; [10]
  activity at 4000 µM: 128%
[1]; material conc. 4 mM, comparison value with Ctr (TNFα alone), 24 h
  Recovery ratio/ctr: 1.11

## O=C(O)C(O)Cc1ccccc1 (centres unmarked) [Phenyl-lactate, phenyl lactatic acid]
[1]; material conc. 0.2 mM, TER barrier function recovery, 24 h
  Recovery ratio (%): 129%
[1]; material conc. 0.2 mM, comparison value with Ctr (TNFα alone), 24 h
  Recovery ratio/ctr: 1.12

## COC[C@H]1O[C@@H](OC2OC[C@@H]3O[C@]4(O[C@H]3[C@H]2OC(=O)C(C)C)O[C@H](C)[C@@](O)(C(C)=O)[C@@H]2OCO[C@H]24)[C@@H](OC)[C@@H](O)[C@@H]1O[C@@H]1O[C@H](C)[C@H](OC)[C@H](O[C@H]2C[C@@]3(C)OC4(C[C@@H](O)[C@H](O[C@H]5C[C@@H](O)[C@H](OC(=O)c6c(C)c(Cl)c(O)c(Cl)c6OC)[C@@H](C)O5)[C@@H](C)O4)O[C@@H]3[C@@H](C)O2)[C@H]1O (some centres unmarked) [Avilamycin, avilamycin]
[1]; [11]
  Recovery ratio (%): 127%
[1]; [12]
  Recovery ratio/ctr: 1.10
[1]
  function of strengthening the barrier function (membrane-strengthening ability): had a function of strengthening the barrier function even at a low concentration
[2]; [13]
  BWG: 110%
  FCR: 96%
[2]; [14]
  BWG: 107%
  FCR: 95%
[2]; [15]
  BWG: 104%
  FCR: 97%
[2]; [16]
  BWG: 107%
  FCR: 94%
[3]; [17]
  Minimum inhibitory concentration: 16000 µg/mL (≈ 11.4 mM)
[4]; [18]
  Minimum inhibitory concentration: 8000 µg/mL (≈ 5.7 mM)
[5]
  Minimum inhibitory concentration: 1000 µg/mL (≈ 0.712 mM)
[6]; [19]
  Minimum inhibitory concentration: 2000 µg/mL (≈ 1.42 mM)
Escherichia coli MG1665; [20]
  Minimum inhibitory concentration: >100000 µg/mL
[7]; [21]
  Minimum inhibitory concentration: 8000 µg/mL (≈ 5.7 mM)
[8]; [22]
  Minimum inhibitory concentration: 16000 µg/mL (≈ 11.4 mM)
[9]
  Minimum inhibitory concentration: >100000 µg/mL

## CC[C@H]1OC(=O)C[C@@H](O)[C@H](C)[C@@H](O[C@@H]2O[C@H](C)[C@@H](O[C@H]3C[C@@](C)(O)[C@@H](O)[C@H](C)O3)[C@H](N(C)C)[C@H]2O)[C@@H](CC=O)C[C@@H](C)C(=O)/C=C/C(C)=C/[C@@H]1CO[C@@H]1O[C@H](C)[C@@H](O)[C@@H](OC)[C@H]1OC [Tylosin]
[1]; Homo sapiens, Caco-2, material conc. 10 uM, TER barrier function recovery, 24 h, read-out: Recovery ratio (%)
  activity at 10 µM: 135%
[1]; [12]
  Recovery ratio/ctr: 1.17
[3]; [23]
  MIC: 1000 µg/mL (≈ 1.09 mM)
[4]; [24]
  MIC: 1000 µg/mL (≈ 1.09 mM)
[5]
  MIC: 4000 µg/mL (≈ 4.37 mM)
[6]; [25]
  MIC: 4000 µg/mL (≈ 4.37 mM)
Escherichia coli MG1665; [26]
  MIC: > 100000 µg/mL
[7]; [27]
  MIC: 4000 µg/mL (≈ 4.37 mM)
[8]; [28]
  MIC: 10 µg/mL (≈ 0.0109 mM)
[9]
  MIC: > 100000 µg/mL

## NC(=O)CC[C@H](N)C(=O)O [Glutamine, glutamine]
[1]; Homo sapiens, Caco-2, material conc. 20 mM, TER barrier function recovery, 24 h, read-out: Recovery ratio (%)
  activity at 20000 µM: 136%
[1]; material conc. 20 mM, comparison value with Ctr (TNFα alone), 24 h
  Recovery ratio/ctr: 1.18

## CN(C)[C@@H]1C(O)=C(C(N)=O)C(=O)[C@@]2(O)C(O)=C3C(=O)c4c(O)ccc(Cl)c4[C@@](C)(O)[C@H]3C[C@@H]12 [Chlortetracycline]
[3]; [23]
  MIC: 4000 µg/mL (≈ 8.35 mM)
[4]; [24]
  MIC: 3000 µg/mL (≈ 6.26 mM)
[5]
  MIC: 62 µg/mL (≈ 0.129 mM)
Escherichia coli MG1665; [26]
  MIC: 50000 µg/mL (≈ 104 mM)
[7]; [27]
  MIC: 4000 µg/mL (≈ 8.35 mM)
[8]; [28]
  MIC: 16000 µg/mL (≈ 33.4 mM)
[9]
  MIC: 50000 µg/mL (≈ 104 mM)

## COc1cc(/C=C/C(=O)CC(=O)/C=C/c2ccc(O)c(OC)c2)ccc1O [Curcumin, curcumin]
[1]; Homo sapiens, Caco-2, material conc. 200 uM, TER barrier function recovery, 24 h, read-out: Recovery ratio (%)
  activity at 200 µM: 128%
[1]; material conc. 200 uM, comparison value with Ctr (TNFα alone), 24 h
  Recovery ratio/ctr: 1.14

## CC[C@H](C)[C@H](N)C1=N[C@H](C(=O)N[C@@H](CC(C)C)C(=O)N[C@H](CCC(=O)O)C(=O)N[C@H](C(=O)N[C@H]2CCCCNC(=O)[C@H](CC(N)=O)NC(=O)[C@@H](CC(=O)O)NC(=O)[C@H](Cc3cnc[nH]3)NC(=O)[C@@H](Cc3ccccc3)NC(=O)[C@H]([C@@H](C)CC)NC(=O)[C@@H](CCCN)NC2=O)[C@@H](C)CC)CS1 [Bacitracin] (HELM PEPTIDE1{[CC[C@H](C)[C@H](N)C1=N[C@H](C(=O)[*:2])CS1].L.[dE].I.K.[NCCC[C@@H](N[*:1])C(=O)[*:2]].I.[dF].H.[dD].N}$PEPTIDE1,PEPTIDE1,5:R3-11:R2$$$V2.0)
[3]; [23]
  MIC: 32000 µg/mL (≈ 22.5 mM)
[4]; [24]
  MIC: 32000 µg/mL (≈ 22.5 mM)
Escherichia coli MG1665; [29]
  MIC: > 100000 µg/mL
[7]; [27]
  MIC: > 100000 µg/mL
[8]; [28]
  MIC: 4000 µg/mL (≈ 2.81 mM)
[9]
  MIC: > 100000 µg/mL

## Colistin
[1]; material conc. 1 uM, TER barrier function recovery, 24 h
  Recovery ratio (%): 130%
[1]; [30]
  Recovery ratio/ctr: 1.13
[1]
  function of strengthening the barrier function (membrane-strengthening ability): had a function of strengthening the barrier function even at a low concentration
[3]; [17]
  Minimum inhibitory concentration: >100000 µg/mL
[4]; [18]
  Minimum inhibitory concentration: >100000 µg/mL
[5]
  Minimum inhibitory concentration: >100000 µg/mL
[6]; [19]
  Minimum inhibitory concentration: >100000 µg/mL
Escherichia coli MG1665; [20]
  Minimum inhibitory concentration: 4000 µg/mL
[7]; [21]
  Minimum inhibitory concentration: >100000 µg/mL
[8]; [22]
  Minimum inhibitory concentration: 128000 µg/mL
[9]
  Minimum inhibitory concentration: >100000 µg/mL

## CCCC(=O)O [Butylate, butyric acid]
[1]; Homo sapiens, Caco-2, material conc. 2.0 mM, TER barrier function recovery, 24 h, read-out: Recovery ratio (%)
  activity at 2000 µM: 131%
[1]; material conc. 2.0 mM, comparison value with Ctr (TNFα alone), 24 h
  Recovery ratio/ctr: 1.13

## CC[C@@H](C(=O)[C@@H](C)[C@@H](O)[C@H](C)[C@@H]1O[C@@H]([C@@H](CC)C(=O)O)CC[C@@H]1C)[C@H]1O[C@]2(C=C[C@@H](O)[C@]3(CC[C@@](C)([C@H]4CC[C@](O)(CC)[C@H](C)O4)O3)O2)[C@H](C)C[C@@H]1C [Salinomycin]
[1]; [10]
  activity at 1 µM: 124%
[1]; [30]
  Recovery ratio/ctr: 1.10
[3]; Lactobacillus acidophilus, AJ13778, read-out: Minimum inhibitory concentration
  MIC: 2000 µg/mL (≈ 2.66 mM)
[4]; AJ110152, read-out: Minimum inhibitory concentration
  MIC: 1000 µg/mL (≈ 1.33 mM)
[5]
  MIC: 1000 µg/mL (≈ 1.33 mM)
[6]; Enterococcus faecalis, AJ110149, read-out: Minimum inhibitory concentration
  MIC: 500 µg/mL (≈ 0.666 mM)
Escherichia coli MG1665; [29]
  MIC: > 100000 µg/mL
[7]; Bacteroides fragilis, JCM11019, read-out: Minimum inhibitory concentration
  MIC: 64000 µg/mL (≈ 85.2 mM)
[8]; Bifidobacterium thermophilum, AJ110569, read-out: Minimum inhibitory concentration
  MIC: 2000 µg/mL (≈ 2.66 mM)
[9]
  MIC: > 100000 µg/mL

## Zinc Bacitracin
[1]; [11]
  Recovery ratio (%): 124%
[1]; [12]
  Recovery ratio/ctr: 1.10

## CC(C)[C@H](N)C(=O)O [Valine, valine]
[1]; 24 h, 200 µM
  Recovery ratio/ctr: 1.13
[1]; Homo sapiens, Caco-2, material conc. 0.2 mM, TER barrier function recovery, 24 h, read-out: Recovery ratio (%)
  activity at 200 µM: 130%

## CC1=C(/C=C/C(C)=C/C=C/C(C)=C/C=C/C=C(C)/C=C/C=C(C)/C=C/C2=C(C)C(=O)[C@@H](O)CC2(C)C)C(C)(C)C[C@H](O)C1=O [Astaxanthin, astaxanthin]
[1]; Homo sapiens, Caco-2, material conc. 10 mg/L, TER barrier function recovery, 24 h, read-out: Recovery ratio (%)
  activity at 10 µg/mL: 132%
[1]; material conc. 10 mg/L, comparison value with Ctr (TNFα alone), 24 h
  Recovery ratio/ctr: 1.14
[1]
  function of strengthening the barrier function (membrane-strengthening ability): observed to have the function of strengthening the barrier function

## CC[C@@]1([C@@H]2O[C@@H]([C@H]3O[C@@](O)(CO)[C@H](C)C[C@@H]3C)C[C@@H]2C)CC[C@H]([C@]2(C)CC[C@]3(C[C@H](O)[C@@H](C)[C@@H]([C@@H](C)[C@@H](OC)[C@H](C)C(=O)O)O3)O2)O1 [Monensin]
[1]; Homo sapiens, Caco-2, material conc. 1 uM, TER barrier function recovery, 24 h, read-out: Recovery ratio (%)
  activity at 1 µM: 126%
[1]; [30]
  Recovery ratio/ctr: 1.13
[3]; [23]
  MIC: 2000 µg/mL (≈ 2.98 mM)
[4]; [24]
  MIC: 1000 µg/mL (≈ 1.49 mM)
[5]
  MIC: 1000 µg/mL (≈ 1.49 mM)
[6]; [25]
  MIC: 2000 µg/mL (≈ 2.98 mM)
Escherichia coli MG1665; [29]
  MIC: > 100000 µg/mL
[8]; [28]
  MIC: 2000 µg/mL (≈ 2.98 mM)
[9]
  MIC: > 100000 µg/mL
